Test results published in patent publication EP4684782A1, “COSMETIC COMPOSITION FOR ANTIOXIDATION” (LG Chem, Ltd., priority 2023, dated 2025).
“And” between values parts separate entries of the source, which are not always exact repeats. Identical values can stand only once.

Key:
[1] = DPPH radical scavenging ability (antioxidant power), absorbance at 520 nm; type: biochemical; details: for Antioxidant power, Average: average of three measurements, 30 min; for Antioxidant power: single measurements (Once, Two times, Three times), 0.5 mM DPPH, room temperature, 30 minutes
Experimental: The DPPH radical expresses a dark purple color. The DPPH radical is reduced by the antioxidant effective ingredient, and the dark purple color is discolored. The performance of the antioxidant effective ingredient can be measured using such characteristics.
The 3HP aqueous solution obtained from Preparation Example 1 was prepared at five different concentrations (0 wt.%, 1 wt.%, 5 wt.%, 10 wt.%, 70 wt.%), 50 µℓ of each 3HP aqueous solution and 150 µℓ of methanol were dispensed into a 96-well plate and reacted at room temperature for 30 minutes. The absorbance (ODcontrol group, wavelength 520 nm) was repeatedly measured three times.
A DPPH aqueous solution containing 0.5 mM DPPH (free radical, 95%, Alfa Aesar) was prepared. 50 µℓ of methanol and 150 µℓ of the DPPH aqueous solution were dispensed into a 96-well plate and reacted at room temperature for 30 minutes. The absorbance (ODnegative control group, wavelength 520 nm) was repeatedly measured three times.
A DPPH aqueous solution containing 0.5 mM DPPH (free radical, 95%, Alfa Aesar) was prepared. The 3HP aqueous solution obtained from Preparation Example 1 was prepared at five different concentrations (0 wt.%, 1 wt.%, 5 wt.%, 10 wt.%, 70 wt.%), and 50 µℓ of each 3HP aqueous solution and 150 µℓ of the DPPH aqueous solution were dispensed into a 96-well plate and reacted at room temperature for 30 minutes. The absorbance (ODexperimental group, wavelength 520 nm) was repeatedly measured three times.
The absorbance at a wavelength of 520 nm was measured using a micro reader.
The DPPH radical scavenging ability (antioxidant power) of 3HP was calculated according to the following Equation 1, and the results are shown in Tables below. [formula]

human skin tissues = assay: Skin tissue cell stability experiment (explant tissue culture, HE staining); type: cell-based; details: 3HP applied at concentrations of 1%, 5%, and 10%, tissues obtained 24 hours after application, FIG. 1
Experimental: The human skin tissues provided for research purposes (IRB No. 4-2023-0054; Institutional Review Board, Severance Medical Center, Yonsei University College of Medicine) was defatted, and washed several times with PBS (phosphate buffered saline; Lonza) to remove residual impurities. The skin tissues were prepared into a size of 1 cm × 1 cm for each test group, and the test composition was applied to the prepared skin tissues, and PBS was applied to the negative control. The skin tissues in which the absorption of the test composition has been completed were cultured in a special medium at 37°C, 5% CO2.
Tissues obtained 24 hours after application of the test composition were fixed with 10% formalin, and then paraffin blocks and paraffin-embedded slides were prepared. The deparaffinized tissues were stained for nuclei with hematoxylin (S3309; dako) solution, and then washed in running water. The cytoplasm was stained with eosin (318906; sigma) solution, and then the tissues were completely dehydrated through washing process and fixed using a mounting solution. The epidermis and papillary dermis of the fixed tissues were photographed at 400x magnification using an optical microscope (BX43F; OLYMPUS).

## O=C(O)CCO [Example 3HP, 3-hydroxypropionic acid]
[1]; 3HP treated concentration 1 %
  Antioxidant power, Average: 0.904%
  Antioxidant power: 0.850% and 1.042% and 0.819%
[1]; 3HP treated concentration 5%
  Antioxidant power, Average: 2.474%
  Antioxidant power: 2.452% and 2.552% and 2.419%
[1]; 3HP treated concentration 10 %
  Antioxidant power, Average: 5.175%
  Antioxidant power: 5.209% and 5.205% and 5.111%
[1]; 3HP treated concentration 70 %
  Antioxidant power, Average: 21.011%
  Antioxidant power: 20.888% and 21.142% and 21.002%
[1]; under the treatment concentrations tested (1, 5, 10, 70 wt.%), result in words
  DPPH radical scavenging ability: significant DPPH radical scavenging ability was exhibited
Human skin tissues
  damage to the epidermis and dermis or separation between tissues: no damage to the epidermis and dermis or separation between tissues were observed
